Data published in PubChem BioAssay AID256 (DTP/NCI, 2004).
Where “and” joins values, the source holds several entries; their conditions need not be identical. Identical values can stand only once. Toxic doses and inconclusive results are not listed. How the source made its calls: active means survival T/C of 150% or more; inactive means T/C below 125% in these data.

Test system: CD2F1 mice, L1210 leukemia ip, survival T/C
Test: NCI In Vivo Anticancer Drug Screen. Data for tumor model L1210 Leukemia (intraperitoneal) in CD2F1 (CDF1) mice
Settings: endpoint: mean survival time, higher = longer survival
Procedure, shortened: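 Implant tumor; dose compound or vehicle; measure endpoint in both groups; report treated divided by control.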

[1] = dose: 100.0 mg/kg/injection, schedule: Q01DX001 (ip), vehicle: saline with Tween-80
[2] = dose: 100.0 mg/kg/injection, schedule: Q01DX009 (ip), vehicle: saline with Tween-80
[3] = dose: 100.0 mg/kg/injection, schedule: Q04DX002 (ip), vehicle: saline with Tween-80
[4] = dose: 100.0 mg/kg/injection, schedule: Q04DX003 (ip), vehicle: saline with Tween-80
[5] = dose: 200.0 mg/kg/injection, schedule: Q01DX001 (ip), vehicle: saline with Tween-80
[6] = dose: 200.0 mg/kg/injection, schedule: Q01DX009 (ip), vehicle: saline with Tween-80
[7] = dose: 200.0 mg/kg/injection, schedule: Q04DX002 (ip), vehicle: saline with Tween-80
[8] = dose: 200.0 mg/kg/injection, schedule: Q04DX003 (ip), vehicle: saline with Tween-80
[9] = dose: 400.0 mg/kg/injection, schedule: Q04DX002 (ip), vehicle: saline with Tween-80
[10] = dose: 400.0 mg/kg/injection, schedule: Q04DX003 (ip), vehicle: saline with Tween-80
[11] = dose: 200.0 mg/kg/injection, schedule: Q01DX009 (ip), vehicle: Klucel (hydroxypropylcellulose) (HPC)
[12] = dose: 25.0 mg/kg/injection, schedule: Q04DX003 (ip), vehicle: saline with Tween-80
[13] = dose: 400.0 mg/kg/injection, schedule: Q01DX001 (ip), vehicle: saline with Tween-80
[14] = dose: 400.0 mg/kg/injection, schedule: Q01DX009 (ip), vehicle: saline with Tween-80

Measured: T/C

CN(C)c1ccc2c(N(C)C)cc(N(C)C)nc2c1
inactive: dose: 0.78 mg/kg/injection, schedule: Q01DX009 (ip), vehicle: Klucel (hydroxypropylcellulose) (HPC) 106 % of control | dose: 1.56 mg/kg/injection, schedule: Q01DX009 (ip), vehicle: Klucel (hydroxypropylcellulose) (HPC) 102 % of control | dose: 3.12 mg/kg/injection, schedule: Q01DX009 (ip), vehicle: Klucel (hydroxypropylcellulose) (HPC) 104 % of control | dose: 6.25 mg/kg/injection, schedule: Q01DX009 (ip), vehicle: Klucel (hydroxypropylcellulose) (HPC) 98 % of control | dose: 12.5 mg/kg/injection, schedule: Q01DX009 (ip), vehicle: Klucel (hydroxypropylcellulose) (HPC) 113 % of control and 96 % of control | dose: 25.0 mg/kg/injection, schedule: Q01DX009 (ip), vehicle: Klucel (hydroxypropylcellulose) (HPC) 88 % of control

O=C(O)/C(=C\c1cccc([N+](=O)[O-])c1)c1ccccc1
inactive: [1] 97 % of control | [2] 91 % of control and 107 % of control | [3] 100 % of control and 105 % of control | [4] 100 % of control | [5] 96 % of control | [6] 93 % of control | [7] 101 % of control and 103 % of control | [8] 100 % of control | [9] 90 % of control and 92 % of control | [10] 100 % of control

CC(=O)OC1C(O)C(OC(=O)c2ccccc2)C(OC(C)=O)C(OC(C)=O)C1OC(C)=O (stereo unspecified)
inactive: [11] 91 % of control | dose: 400.0 mg/kg/injection, schedule: Q01DX009 (ip), vehicle: Klucel (hydroxypropylcellulose) (HPC) 88 % of control

CN(C)CCNC1=C(Cl)C(=O)c2ccccc2C1=O
inactive: dose: 6.25 mg/kg/injection, schedule: Q04DX003 (ip), vehicle: saline with Tween-80 97 % of control | dose: 12.5 mg/kg/injection, schedule: Q04DX003 (ip), vehicle: saline with Tween-80 101 % of control | [12] 91 % of control and 102 % of control

c1ccc(N/N=C(/c2ccccc2)c2ccccn2)cc1
inactive: [1] 103 % of control | [5] 111 % of control | [13] 105 % of control

O=C(COc1ccc(Cl)cc1Cl)Nc1cc[n+](Cc2ccc(S(=O)(=O)F)cc2)cc1
inactive: [4] 98 % of control | [8] 98 % of control | [10] 95 % of control

c1ccc2c(-c3nnn4ccccc34)cccc2c1
inactive: dose: 100.0 mg/kg/injection, schedule: Q01DX001 (ip), vehicle: saline 89 % of control | dose: 200.0 mg/kg/injection, schedule: Q01DX001 (ip), vehicle: saline 106 % of control | dose: 400.0 mg/kg/injection, schedule: Q01DX001 (ip), vehicle: saline 97 % of control

ClC(c1ccccc1)C(Cl)c1ccccc1 (stereo unspecified)
inactive: dose: 3.13 mg/kg/injection, schedule: Q01DX009 (ip), vehicle: saline with Tween-80 102 % of control | dose: 6.25 mg/kg/injection, schedule: Q01DX009 (ip), vehicle: saline with Tween-80 102 % of control | dose: 12.5 mg/kg/injection, schedule: Q01DX009 (ip), vehicle: saline with Tween-80 91 % of control and 95 % of control

COC1(C)CCC(=O)O1 (stereo unspecified)
inactive: dose: 100.0 mg/kg/injection, schedule: Q04DX003 (ip), vehicle: saline 96 % of control | dose: 200.0 mg/kg/injection, schedule: Q04DX003 (ip), vehicle: saline 96 % of control | dose: 400.0 mg/kg/injection, schedule: Q04DX003 (ip), vehicle: saline 101 % of control

O=S(=O)(CCCCCl)Nc1ccccn1
inactive: [3] 91 % of control | [7] 94 % of control | [9] 109 % of control

CC(C)C(=O)C(C)(C)c1nc2ccccc2[nH]1
inactive: [3] 106 % of control | [7] 98 % of control | [9] 87 % of control

O=C(O)c1ccc(NC(=S)NC(=O)c2cccc(Br)c2)cc1
inactive: [1] 97 % of control | [2] 95 % of control and 97 % of control | [3] 95 % of control | [4] 100 % of control | [5] 88 % of control and 101 % of control | [6] 95 % of control and 101 % of control | [7] 94 % of control and 103 % of control | [8] 90 % of control | [13] 92 % of control and 95 % of control | [14] 86 % of control | [9] 97 % of control and 106 % of control | [10] 93 % of control

CCOC(=O)C1=C(C)NC(C)=C(C(=O)OCC)C1c1ccccn1
inactive: dose: 50.0 mg/kg/injection, schedule: Q01DX009 (ip), vehicle: Klucel (hydroxypropylcellulose) (HPC) 94 % of control | dose: 100.0 mg/kg/injection, schedule: Q01DX009 (ip), vehicle: Klucel (hydroxypropylcellulose) (HPC) 91 % of control | [11] 89 % of control

COc1ccc(OC)c(C2(O)C=C(Cl)C(=O)C=C2Cl)c1 (stereo unspecified)
inactive: [1] 101 % of control | [5] 97 % of control

CCC(=O)Nc1ccccc1Cl
inactive: [4] 103 % of control | [8] 100 % of control | [10] 100 % of control

NN1C(=O)Cc2ccccc2C1=O
inactive: [2] 103 % of control | [6] 109 % of control | [14] 105 % of control

CC(NCCN1CC1)C1CC1 (stereo unspecified)
inactive: dose: 17.6 mg/kg/injection, schedule: Q01DX009 (ip), vehicle: saline 94 % of control | dose: 26.4 mg/kg/injection, schedule: Q01DX009 (ip), vehicle: saline 100 % of control | dose: 40.0 mg/kg/injection, schedule: Q01DX009 (ip), vehicle: saline 105 % of control | dose: 60.0 mg/kg/injection, schedule: Q01DX009 (ip), vehicle: saline 117 % of control

COC(=O)CC(C)Cc1ccc(OC)c(OC)c1 (stereo unspecified)
inactive: dose: 100.0 mg/kg/injection, schedule: Q01DX009 (ip), vehicle: saline 97 % of control | [4] 97 % of control | dose: 200.0 mg/kg/injection, schedule: Q01DX009 (ip), vehicle: saline 95 % of control | [8] 100 % of control | dose: 400.0 mg/kg/injection, schedule: Q01DX009 (ip), vehicle: saline 86 % of control | [10] 96 % of control

N#CC(=N)C(C#N)C#N
inactive: dose: 12.5 mg/kg/injection, schedule: Q04DX002 (ip), vehicle: saline with Tween-80 93 % of control | dose: 25.0 mg/kg/injection, schedule: Q04DX002 (ip), vehicle: saline with Tween-80 93 % of control | dose: 50.0 mg/kg/injection, schedule: Q04DX002 (ip), vehicle: saline with Tween-80 108 % of control

Cc1ccc(C(=O)C(F)(F)F)cc1
inactive: [1] 104 % of control | [5] 101 % of control | [13] 96 % of control

CCOC(=O)C1C(=O)CC(c2ccccc2)C(C#N)(c2ccccc2)C1(O)c1ccccc1 (stereo unspecified)
inactive: [3] 90 % of control | [7] 90 % of control | [9] 90 % of control

C=C(Cl)CSCCS
inactive: dose: 50.0 mg/kg/injection, schedule: Q01DX009 (ip), vehicle: acetone 101 % of control | dose: 100.0 mg/kg/injection, schedule: Q01DX009 (ip), vehicle: acetone 103 % of control

COc1ccc(CCNC(=O)Cc2ccc3c(c2)OCO3)cc1OC
inactive: [1] 92 % of control | [3] 87 % of control | [5] 93 % of control | [7] 97 % of control | [13] 94 % of control | [9] 93 % of control

O=C(c1ccc([N+](=O)[O-])cc1)C(Br)C(Br)c1ccncc1 (stereo unspecified)
inactive: [4] 95 % of control | [8] 97 % of control | [10] 103 % of control

O=c1ccn(C2OC(CO)C3[O][Sn]([c]4ccccc4)([c]4ccccc4)[O]C32)c(=O)[nH]1 (stereo unspecified)
inactive: dose: 1.56 mg/kg/injection, schedule: Q01DX005 (ip), vehicle: other 110 % of control | dose: 3.13 mg/kg/injection, schedule: Q01DX005 (ip), vehicle: other 107 % of control | dose: 6.25 mg/kg/injection, schedule: Q01DX005 (ip), vehicle: other 98 % of control | dose: 12.5 mg/kg/injection, schedule: Q01DX005 (ip), vehicle: other 102 % of control and 105 % of control

Cc1ccc(S(=O)(=O)/C=C(\C=C/c2ccccc2)c2ccccc2)cc1
inactive: dose: 50.0 mg/kg/injection, schedule: Q01DX009 (ip), vehicle: saline with Tween-80 103 % of control | [2] 103 % of control | [6] 106 % of control

On1ccc(=S)c2ccccc21
inactive: [4] 102 % of control | [8] 96 % of control | [10] 102 % of control

O=C(O)COc1cc(F)c(Cl)cc1F
inactive: [3] 102 % of control | [7] 105 % of control | [9] 109 % of control

Cc1cc(Cl)ccc1[NH-].Cc1cc(Cl)ccc1[NH-].[Cl][Pt+2][Cl]
inactive: [12] 100 % of control | dose: 50.0 mg/kg/injection, schedule: Q04DX003 (ip), vehicle: saline with Tween-80 94 % of control | [4] 94 % of control | [8] 94 % of control | [10] 97 % of control

COc1cc(C(=O)NC(=S)Nc2ccc3ccccc3c2)cc(OC)c1OC
inactive: [2] 90 % of control | [6] 94 % of control

CC1CC(C)(C)[N+](C)=C(CCc2ccccc2)O1 (stereo unspecified)
inactive: [1] 93 % of control
